According to ChEMBL document CHEMBL1131952, “Synthesis of tetrasubstituted bicyclo[3.2.1]octenes as potential inhibitors of influenza virus sialidase” (Bioorg Med Chem Lett, 1999):
pIC50: −log10 of the molar value.

Legend:
Influenza A virus = test: Inhibitory activity against sialidase of influenza A; format: functional, organism-based
Influenza B virus = test: Inhibitory activity against sialidase of influenza B; format: functional, organism-based

Structure (SMILES) | pIC50 (Influenza A virus) | pIC50 (Influenza B virus)
CCC(CC)O[C@@H]1C=C(C(=O)O)[C@@H]2CC[C@@]1(NC(C)=O)[C@H]2O | 4.10 | 3.47
CCC(CC)O[C@@H]1C=C(C(=O)O)[C@@H]2CC[C@@]1(C(=O)O)[C@H]2O | < 3.17 | < 3.17
CCC(CC)O[C@@H]1C=C(C(=O)O)[C@@H]2CC[C@@]1(C(=O)OC)[C@H]2O | 4.00 | 4.08
CC(=O)N[C@H]1[C@H]([C@H](O)[C@H](O)CO)OC(C(=O)O)=C[C@@H]1O [NEU5AC2EN] | 5.55 | 5.52
